This note sets out measurements from ChEMBL document CHEMBL1201862, “PubChem BioAssay data set” (2004).

Test systems include NCI-H226; M14; NCI-H23; OVCAR-4; EKVX; CAKI-1; CCRF-CEM; LOX IMVI; TK-10; HOP-62; 786-0; MCF7; SF-295; SW-620; PC-3; MDA-N; A549; UO-31; UACC-62; COLO 205.
Holding throughout (assay): NCI anticancer screen, dose series, 48 h

The structures appear in SMILES notation.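 Step 1: Grow cells in 96-well plates. Step 2: Expose to compound for 48 hours at 5 concentrations. Step 3: Interpolate endpoints linearly; if unreached, use highest concentration. GI50 is the concentration that inhibits growth by half.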 The source made the active and inactive calls. No stated cut-off is given here; in the data, active = GI50 up to about 1.1 µM and inactive = higher. Some results are limits rather than exact numbers.

In the case of `Cc1ccc(C(=O)/C=C2/Nc3ccccc3NC2=O)c(C)c1`, the GI50 with NCI-H226 is 10.8 µM (inactive); with M14, 49.2 µM (inactive); in the assay on NCI-H23, 16.1 µM (inactive); with OVCAR-4 it was 2.7 µM (inactive); in the assay with EKVX, 8.77 µM (inactive); in the assay with CAKI-1, 3.95 µM (inactive). Besides, the GI50 with CCRF-CEM was 62.5 µM (inactive); in the assay on LOX IMVI, 22.6 µM (inactive); with TK-10, 5.58 µM (inactive); in the assay with HOP-62 it was 5.62 µM (inactive); with 786-0 it was 4.19 µM (inactive); in the assay on MCF7 it was 13.3 µM (inactive). The GI50 in the assay on SF-295 was 9.46 µM (inactive); in the assay with SW-620 it was 27.2 µM (inactive); in the assay with PC-3, 18.2 µM (inactive); in the assay on MDA-N, 17.5 µM (inactive); in the assay with A549, 13.7 µM (inactive); in the assay on UO-31 it was 8.32 µM (inactive). Besides, the GI50 in the assay on UACC-62 is 5.37 µM (inactive); in the assay on COLO 205 it was 62.1 µM (inactive).
As to `Cc1ccc(S(=O)(=O)N/N=C/C(=C/c2ccc(Cl)cc2)CC(/C=N/NS(=O)(=O)c2ccc(C)cc2)=C\c2ccc(Cl)cc2)cc1`, the GI50 in the assay with NCI-H226 was 15 µM (inactive); in the assay with M14 it was 10.8 µM (inactive); with NCI-H23 it was 6.93 µM (inactive); in the assay on OVCAR-4, 5.42 µM (inactive); in the assay on EKVX, 13 µM (inactive); with CAKI-1, 5.37 µM (inactive). Moreover, the GI50 is 2.98 µM (inactive) in the assay with CCRF-CEM; 2.1 µM (inactive) with LOX IMVI; 17.9 µM (inactive) with TK-10; 19.5 µM (inactive) in the assay on HOP-62; 2.19 µM (inactive) in the assay on 786-0; 2.86 µM (inactive) with MCF7. Moreover, the GI50 in the assay on SF-295 was 14 µM (inactive); in the assay on SW-620 it was 4.47 µM (inactive); in the assay with PC-3 it was 4.02 µM (inactive); in the assay with MDA-N, 4.45 µM (inactive); in the assay on A549, 17.1 µM (inactive); in the assay on UO-31, 5.62 µM (inactive). Also, the GI50 with UACC-62 was 5.08 µM (inactive); in the assay on COLO 205, 5 µM (inactive).
With `COC(=O)/C=C\c1ccc2c(c1)CC1(C2)Cc2ccc(/C=C/C(=O)OC)cc2C1` (stereo not given), the GI50 with NCI-H226 is > 31.6 µM (inactive); with M14, > 31.6 µM (inactive); in the assay with NCI-H23, > 31.6 µM (inactive); in the assay with OVCAR-4 it was 22.8 µM (inactive); in the assay with EKVX it was > 31.6 µM (inactive); in the assay with CAKI-1, 0.918 µM (active). The GI50 with CCRF-CEM was > 31.6 µM (inactive); with LOX IMVI, > 31.6 µM (inactive); in the assay with TK-10, > 31.6 µM (inactive); in the assay with HOP-62, 15.2 µM (inactive); in the assay on 786-0, 19.6 µM (inactive); in the assay with MCF7, 21.2 µM (inactive). For the same compound, the GI50 in the assay on SF-295 was 21.5 µM (inactive); in the assay on SW-620 it was > 100 µM (inactive); in the assay on PC-3, > 31.6 µM (inactive); in the assay on MDA-N, > 31.6 µM (inactive); in the assay on A549 it was > 31.6 µM (inactive); in the assay on UO-31, > 31.6 µM (inactive). Besides, the GI50 with UACC-62 and in the assay with COLO 205 was > 31.6 µM (inactive) in each case.
With `COc1ccc(-c2cc(=O)c3c(O)c(OC)c(OC)c(OC)c3o2)cc1OC` [5-DEMETHYLNOBILETIN], the GI50 in the assay with NCI-H226, with M14, in the assay with NCI-H23, in the assay on OVCAR-4, in the assay with EKVX and in the assay with CAKI-1 was > 100 µM (inactive) each time. The GI50 with CCRF-CEM was > 100 µM (inactive); in the assay on LOX IMVI it was 47.8 µM (inactive); with TK-10 it was 67.1 µM (inactive); with HOP-62 it was 19.5 µM (inactive); in the assay with 786-0, 58.7 µM (inactive); with MCF7, > 100 µM (inactive). Also, the GI50 with SF-295 was > 100 µM (inactive); in the assay on SW-620, > 10 µM (inactive); in the assay on PC-3, > 100 µM (inactive); with MDA-N, > 100 µM (inactive); with A549 it was > 100 µM (inactive); in the assay on UO-31 it was > 100 µM (inactive). Besides, the GI50 with UACC-62 and with COLO 205 was > 100 µM (inactive) throughout.
